In brackets after ≈: the same amount, converted by molar mass. Where two headings read alike, the source gives them in different places.

Consider 3 compounds from patent publication US20230047825A1, “ANTIMICROBIAL PEPTIDES” (priority 2019, published 2023).

Assay [1] has as its system Staphylococcus aureus VRS-2 (VanA, VRSA). In words: microbe, parasite or virus in culture. To be noted: for MIC: Staphylococcus aureus, VRSA. The procedure:
(§1) The S. aureus strains ATCC 29213, ATCC 19636, ATCC 33591 (MRSA), BAA-1556 (MRSA USA 300) were obtained from the American Type Culture Collection (ATCC). […] The species identity was confirmed with 16S rRNA analysis.
(§2) Two broth mediums were used, Mueller Hinton Broth and RPMI 1640+5% fetal bovine serum. Test substances were evaluated in 11-point titrations and performed in duplicate.
(§3) The direct colony suspension method was used to prepare inoculated broth. Isolated colonies were taken from an 18-24 h culture plate. Optical density measurements (OD620nm) were used to estimate the bacterial density. […] The stock solutions were diluted by 2-fold serial titrations with their respective vehicles for a total of 11 concentrations.
(§4) A 4 μL aliquot of each dilution was added to 196 μL of broth medium seeded with the organism in wells of a sterilized 96 well polypropylene plate (Nunc™ 249949) using aluminum foil as cover. The final bacterial count was 2 to 8×10^5 CFU/mL. […] The final test article concentration range was 32 to 0.0313 μg/mL.
(§5) Each test substance dilution was evaluated in duplicate on one test occasion. […] Plates were incubated at 35-37° C. for 18 h. The test plates were visually examined and each well was visually scored for growth or complete inhibition of growth. The MIC value was recorded.

Assay [2] concerns Staphylococcus aureus ATCC 19636 (Smith). In words: microbe, parasite or virus in culture. Particulars: for MIC: Staphylococcus aureus. The procedure:
as §1, §2, §3, §4, §5

In assay [3] the test system is Staphylococcus aureus ATCC 29213. In words: microbe, parasite or virus in culture. Particulars: for MIC: Staphylococcus aureus. The procedure:
as §1, §2, §3, §4, §5

Assay [4] relates to Staphylococcus aureus ATCC BAA-1556 (USA300, MRSA). In words: microbe, parasite or virus in culture. To be noted: for MIC: Staphylococcus aureus. The procedure:
as §1, §2, §3, §4, §5

For assay [5], the system named is Staphylococcus aureus ATCC 33591 (MRSA). In words: microbe, parasite or virus in culture. Particulars: for MIC: Staphylococcus aureus. Here is the method: as §1, §2, §3, §4, §5
The next assay deals with EMRSA-15 lung infection. The procedure:
Murine EMRSA-15 lung infection model. In one embodiment this was carried out using the method described previously,^58 an overnight culture of EMRSA-15 was prepared in tryptic soy broth (TSB). EMRSA-15 was cultured in TSB overnight at 37° C., adjusted to a starting OD600 of 0.025, and grown for additional 4 h for agar beads preparation. EMRSA-15 was embedded into agar beads by mixing the overnight culture with molten tryptic soy agar, which was then spun into warmed mineral oil. The preparation was cooled and centrifuged at 2,700 g, the remaining oil was eliminated and the beads were washed in sterile PBS. The colony forming unit (cfu) content of the beads slurry was subsequently quantified on TSA plates and the beads slurry then diluted to either 2×10^7 cfu/ml in sterile PBS to deliver a final dose of either 1×10^6 cfu/mouse. Animal work was performed in accordance with the Animals (Scientific Procedures) Act of 1986 (United Kingdom). On day 0, male C57B16J mice (8-10 weeks, Charles River) were anesthetized under Isoflurane and 50 μl inoculum of EMRSA-15 embedded in agar beads (10^6 cfu/mouse) was instilled directly into the respiratory tract via oropharyngeal dosing (o.a) to reduce severity associated with surgery. Sham control mice were inoculated with sterile PBS agar beads. […] Body weight was measured daily, and animals monitored at regular intervals for signs of pain and distress. 48 hours post pulmonary infection, animals were terminally euthanized using 25% Urethane via intra-peritoneal injection. Lungs, were removed and homogenized in 2 ml PBS. Samples were serially diluted 1:10 in PBS and plated for CFU count. Lung homogenates were then centrifuged at 14000 rpm for 30 min at 4° C. and the supernatants were stored at −80° C. for future analysis. For bronchoalveolar lavage fluid collection and analysis (total and differential cell count), a 22-gauge catheter was inserted into the trachea and BAL was recovered by instillation of 0.5 ml of sterile PBS three times and total cells counts were performed by adding Turks stain in a 1:1 ratio. Total cells were then enumerated on an improved Naubauer haemocytometer. BAL fluid was then centrifuged, and supernatants were stored at −20° C. Cytospin slides were prepared and 100 μl of BAL was added into a cytospin funnel and centrifuged at 1000 rpm for 1 minute on a medium acceleration. The slides were then stained using Diff-Quick (Dade, Biomap, Italy).
More suitably Murine EMRSA-15 lung infection model was carried out using the method described previously,^58 an overnight culture of EMRSA-15 was prepared in tryptic soy broth (TSB). EMRSA-15 was cultured in TSB overnight at 37° C., adjusted to a starting OD600 of 0.025, and grown for additional 4 h for agar beads preparation. EMRSA-15 was embedded into agar beads by mixing the overnight culture with molten tryptic soy agar, which was then spun into warmed mineral oil. The preparation was cooled and centrifuged at 2,700 g, the remaining oil was eliminated, and the beads were washed in sterile PBS. The colony forming unit (CFU) content of the beads slurry was subsequently quantified on TSA plates and the beads slurry then diluted to either 2×10^7 CFU/ml in sterile PBS to deliver a final dose of either 1×10^6 CFU/mouse. Animal work was performed in accordance with the Animals (Scientific Procedures) Act of 1986 (United Kingdom). On day 0, male C57B16J mice (8-10 weeks, Charles River) were anesthetized under Isoflurane and 50 μl inoculum of EMRSA-15 embedded in agar beads (10^6 CFU/mouse) was instilled directly into the respiratory tract via oropharyngeal dosing (o.a.) to reduce severity associated with surgery. Sham control mice were inoculated with sterile PBS agar beads.

Assay [6] has as its system P. aeruginosa RP73 lung infection. Briefly: Murine P. aeruginosa RP73 lung infection model. Format: in vivo, mouse.
In assay [7] the test system is VS Enterococcus faecalis NCTC 775. In words: Antibacterial activity assay (broth microdilution MIC). Format: cell-based. To be noted: VSE775; medium and unit not given; in µg/mL.
Assay [8] deals with EMR Staphylococcus aureus-16 (EMRSA-16). Format: cell-based. Particulars: EMRSA16; medium and unit not given; in µg/mL.
Assay [9] concerns Pseudomonas aeruginosa PA01. Briefly: Antibacterial activity assay (broth microdilution MIC). Format: cell-based. To be noted: medium and unit not given, in µg/mL.
Assay [10] deals with Acinetobacter baumannii AYE. It is filed as cell-based. Particulars: AYE; medium and unit not given; in µg/mL.
The test system of the next assay is VRE12201. Briefly: Antibacterial activity assay (broth microdilution MIC). Format: cell-based, Enterococcus faecalis. Particulars: medium and unit inferred. An excerpt: Antibacterial activity assay.
The bacterial strains used are as in the above examples. A table of strains is provided below to aid understanding.

Assay [11] has as its system Escherichia coli NCTC 12923. It is filed as cell-based. To be noted: EC12923; medium and unit not given; in µg/mL.
Assay [12] deals with MS Staphylococcus aureus ATCC 9144. Format: cell-based. To be noted: MSSA9144; medium and unit inferred.
The test system of a further assay is C. albicans. Briefly: MIC on initial panels, fungi. Format: cell-based. To be noted: unit inferred.
Assay [13] relates to Klebsiella pneumoniae NCTC 13368. Format: cell-based. Particulars: KP13368; medium and unit not given; in µg/mL.
Assay [14] concerns Acinetobacter baumannii ATCC 17978. Format: cell-based. To be noted: AB17978; medium and unit not given; in µg/mL.
Another assay has as its system HEK293. Briefly: Cytotoxicity assay (XTT). Format: cell-based, human. Particulars: unit not given. The procedure:
(§6) Cytotoxicity assay. HeLa and HEK293 cell lines were purchased from ECACC and cultured in Eagle's Minimum Essential Media (EMEM) containing glutamine, supplemented with 10% FBS and 1× non-essential amino acids (NEAA) at 37° C., 10% CO2. Cytotoxicity was measured by incubating starter cultures of cells for 24 hours in a 96 well plate, gently removing the supernatant and replacing it with dilutions of peptides and controls, incubating for a further 24 hours and then staining of the cells with the second generation tetrazolium dye, XTT. […]

For assay [15], the system named is Pseudomonas aeruginosa NCTC 13437. In words: Antibacterial activity assay (broth microdilution MIC). Format: cell-based. Particulars: PA13437; medium and unit not given; in µg/mL.
The subject of another assay is HeLa. Briefly: Cytotoxicity assay (XTT). It is filed as cell-based, human. Set-up: Toxicity HeLa: unit not given beside the values. To be noted: unit not given. The procedure:
as §6

Assay [16] has as its system EMR Staphylococcus aureus-15 (EMRSA-15). It is filed as cell-based. To be noted: EMRSA15; medium and unit inferred.
A further assay relates to Klebsiella pneumoniae M6. It is filed as cell-based. To be noted: medium and unit not given, in µg/mL.

Regarding `CN[C@H](CC(C)C)C(=O)N[C@H]1C(=O)N[C@@H](CC(N)=O)C(=O)N[C@H]2C(=O)N[C@H]3C(=O)N[C@H](C(=O)N[C@H](C(=O)O)c4cc(O)cc(O)c4-c4cc3ccc4O)[C@H](O)c3ccc(c(Cl)c3)Oc3cc2cc(c3O[C@@H]2O[C@H](CO)[C@@H](O)[C@H](O)[C@H]2O[C@H]2C[C@](C)(N)[C@H](O)[C@H](C)O2)Oc2ccc(cc2Cl)[C@H]1O` [Vancomycin], the MIC was above 64 µg/mL in assay [1] (18 h, read-out: MIC, antibiotic susceptibility, VRS-2, CLSI M7-A10, unit inferred); 4 µg/mL (≈ 2.76 µM) in assay [1] (VRS-2, MHB); above 32 µg/mL in assay [1] (VRS-2, RPMI + 5% FBS); 1 µg/mL (≈ 0.69 µM) in [2] (ATCC19636, 18 h, read-out: MIC, antibiotic susceptibility, ATCC 19636 (Smith), CLSI M7-A10, unit inferred); 0.5 µg/mL (≈ 0.345 µM) in assay [2] (ATCC19636, ATCC 19636 (Smith), MHB); 2 µg/mL in assay [2] (ATCC19636, ATCC 19636 (Smith), RPMI + 5% FBS). Besides, the MIC in assay [3] (ATCC29213, 18 h, read-out: MIC, antibiotic susceptibility, ATCC 29213, CLSI M7-A10, unit inferred) was 0.5 to 1 µg/mL (≈ 0.345 to 0.69 µM); in [3] (ATCC29213, ATCC 29213, MHB), 0.5 µg/mL (≈ 0.345 µM); in assay [3] (ATCC29213, ATCC 29213, RPMI + 5% FBS), 2 µg/mL; in [4] (ATCC BAA-1556, MHB) it was 0.5 µg/mL (≈ 0.345 µM); in [4] (ATCC BAA-1556, RPMI + 5% FBS), 2 µg/mL; in [4] (ATCCBAA1556|BAA1556|MRSA|USA300, 18 h, read-out: MIC, antibiotic susceptibility, BAA-1556, CLSI M7-A10, unit inferred), 0.5 to 1 µg/mL (≈ 0.345 to 0.69 µM). For the same compound, the MIC in assay [5] (ATCC 33591, MHB) stood at 1 µg/mL (≈ 0.69 µM); in assay [5] (ATCC 33591, RPMI + 5% FBS), 4 µg/mL; in [5] (ATCC33591|MRSA, 18 h, read-out: MIC, antibiotic susceptibility, ATCC 33591, CLSI M7-A10, unit inferred), 1 µg/mL (≈ 0.69 µM). For the same compound, the “susceptibility category (CLSI M100 interpretive criteria)” value in assay [1] (VRS-2) was “R”; in [2] (ATCC 19636 (Smith)), “S”; in assay [3] (ATCC 29213) it was “S”; in assay [4] (BAA-1556), “S”; in assay [5] (ATCC 33591), “S”. Besides, in the assay with EMRSA-15 lung infection (following therapy, i.v.), the “IL-6 and neutrophil recruitment in BAL” value was “reduced”. In addition, the “macrophage numbers, TNFα and MCP-1 levels in BAL” value in the assay with EMRSA-15 lung infection (following therapy, i.v.) is recorded as “No effects”. Further, the “effective cumulative dose over 48 hrs” value in the assay with EMRSA-15 lung infection (murine EMRSA-15 lung infection) came out at 200 mg/kg. Besides, the “mouse KC levels in BAL” value in the assay on EMRSA-15 lung infection (vancomycin 600 mg/kg or the two higher D-pleurocidin-KR doses (15, 1.5 mg/kg cumulative)) is “KC levels to fall to that of the uninfected group”.

With `NC[C@H]1O[C@H](O[C@H]2[C@H](O)[C@@H](O[C@H]3O[C@H](CO)[C@@H](O)[C@H](N)[C@H]3O)[C@H](N)C[C@@H]2N)[C@H](N)C[C@@H]1O` [tobramycin], the “reduction in lung CFU” value in assay [6] (25 mg/kg tobramycin (p=0.0919)) worked out at 0.8 log10; in [6] (cumulative dose of 200 mg/kg tobramycin over 30 hours), 1.4 log10.

For “GWGSFFRRAAHAGRHAGRAALTHYL-NH2 [D-pleuro-VAKR, 6x substituted (4 K->R plus 2 V->A), D-amino acids]”, the “MIC on initial panels” value in assay [7] was 32-64; in assay [8], 64; in assay [9] it was 4; in assay [10], 2; against VRE12201, 128 µg/mL; in assay [11], 2. The MIC on initial panels is 8 µg/mL in assay [12]; 4-8 in assay [13]; 2 in assay [14]; 32 in assay [15]; 32 µg/mL in assay [16]; 4 with Klebsiella pneumoniae M6. Moreover, the MIC on initial panels, Fungi against C. albicans worked out at 32 µg/mL. Besides, the “Toxicity HEK293” value in the assay with HEK293 turned out to be 201.2 ± 25.1. In the assay with HeLa, the “Toxicity HeLa” value was 124.0 ± 30.4.
